Experimental findings from US20110160193A1, “New Benzothiazinone Derivatives and Their Use as Antibacterial Agents” (Leibniz Institute for Natural Product Research and …, priority 2006, published 2011) are described below.

Molecules are shown by their SMILES. ≈ marks a conversion by molar mass, not a printed value. Read-outs that look alike come from different tables or passages of the source. Bounds are passed on as bounds.

One series has as its system M. fortuitum B. The series is described as follows: MIC by micro broth dilution method in Mueller-Hinton broth (NCCLS). It is filed as cell-based.
Another series concerns M. vaccae IMET 1010670. Nature of the series: MIC by micro broth dilution method in Mueller-Hinton broth (NCCLS). It is filed as cell-based.
Series [1] relates to Mycobacterium smegmatis SG 987. The description is as above. It is filed as cell-based.
Series [2] concerns Mycobacterium tuberculosis H37Rv. Nature of the series: Murine TB model, hematogenously disseminated tuberculosis. The format is in vivo, BALB/c line mice. Particulars: 10 animals per group.
Series [3] in a line: Toxicity after per os administration. The format is in vivo. The conditions noted are these: mice. As for the experimental part:
The compound of the invention (especially compound no 2=example 1 in the embodiments), is non toxic after per os administration of doses ranging up to 2000 mg/kg was the compound was well endured by animals in the first and 24 next coming hours after introducing. […] LD50 for compound 2 is >2000 mg/kg.

Series [4] concerns Mycobacterium tuberculosis clinical isolate 6341. The series is described as follows: MIC and MBC in liquid Shkolnikova medium / solid Lowenstein-Jensen medium. It is filed as cell-based.
[5] abbreviates: Mycolicibacterium vaccae, IMET1010670.
[6] abbreviates: Mycolicibacterium smegmatis, SG987.

The molecule `Cc1c([N+](=O)[O-])cc2c(=O)nc(N3CCC4(CC3)OCCO4)sc2c1[N+](=O)[O-]` [Compound 8, 2-(1,4-dioxa-8-azaspiro[4.5]dec-8-yl)-7-methyl-6,8-dinitro-1,3-benzothiazin-4-one] displayed a melting point of 207 to 210 °C. The same molecule had an MIC against M. fortuitum B (Mycolicibacterium fortuitum) of 0.025 µg/mL (≈ 0.0612 µM). For the same molecule, the MIC against M. vaccae IMET 1010670 (setting [5]) is 0.025 µg/mL (≈ 0.0612 µM). The minimum inhibitory concentration (MIC) in series [1] (setting [6]) was 0.4 µg/mL (≈ 0.979 µM).

Regarding `CC1COC2(CCN(c3nc(=O)c4cc([N+](=O)[O-])cc([N+](=O)[O-])c4s3)CC2)O1` (stereo not drawn) [Compound 4, 2-(2-methyl-1,4-dioxa-8-azaspiro[4.5]decyl)-6,8-dinitro-1,3-benzothiazin-4-one], the MIC against M. fortuitum B (M. fortuitum) turned out to be 0.003 µg/mL (≈ 0.00735 µM); against M. vaccae IMET 1010670 (M. vaccae), 0.003 µg/mL (≈ 0.00735 µM); in series [1] (M. smegmatis), 0.2 µg/mL (≈ 0.49 µM).

`O=c1nc(N2CCC3(CC2)OCCO3)sc2c([N+](=O)[O-])cc([N+](=O)[O-])cc12` [Compound 3, 2-(1,4-dioxa-8-azaspiro[4.5]dec-8-yl)-6,8-dinitro-1,3-benzothiazin-4-one]: the melting point was in the range of 271 to 273 °C. This molecule yielded an MIC against M. fortuitum B (Mycolicibacterium fortuitum) of 0.006 µg/mL (≈ 0.0152 µM). In the series on M. vaccae IMET 1010670 (setting [5]), the MIC came out at 0.0015 µg/mL (≈ 0.0038 µM). The molecule further came in with a minimum inhibitory concentration (MIC) in series [1] (setting [6]) of 0.2 µg/mL (≈ 0.507 µM).

`O=c1nc(N2CCC3(CC2)OCCCCO3)sc2c([N+](=O)[O-])cc([N+](=O)[O-])cc12` [Compound 7, 2-(7,12-dioxa-3-azaspiro[5.6]dodec-3-yl)-6,8-dinitro-1,3-benzothiazin-4-one]: the melting point was 193 to 195 °C. Further, the lowest concentration to inhibit growth in the series on M. fortuitum B (Mycolicibacterium fortuitum) (MIC) was 0.003 µg/mL (≈ 0.0071 µM). This molecule also returned a minimum inhibitory concentration (MIC) with M. vaccae IMET 1010670 (setting [5]) of 0.003 µg/mL (≈ 0.0071 µM). Further, the minimum inhibitory concentration (MIC) in series [1] (setting [6]) came out at 0.78 µg/mL (≈ 1.85 µM).

Molecule `N#Cc1cc([N+](=O)[O-])c2sc(N3CCC4(CC3)OCCO4)nc(=O)c2c1` [Compound 9, 2-(1,4-dioxa-8-azaspiro[4.5]dec-8-yl)-8-nitro-4-oxo-1,3-benzothiazine-6-carbonitrile] returned a melting point of 217 to 220 °C.

As for `NNC(=O)c1ccncc1` [Isoniazid, reference compound], the Survival of animals in series [2] (day of treatment 1, 25 mg/kg) came to 10; in series [2] (day of treatment 2, 25 mg/kg), 10; in series [2] (day of treatment 3, 25 mg/kg) it was 10; in series [2] (day of treatment 4, 25 mg/kg), 10; in series [2] (day of treatment 5, 25 mg/kg), 10; in series [2] (day of treatment 6, 25 mg/kg), 10. Further, the Survival of animals in series [2] (day of treatment 7, 25 mg/kg) worked out at 10; in series [2] (day of treatment 8, 25 mg/kg), 10; in series [2] (day of treatment 9, 25 mg/kg) it was 10; in series [2] (day of treatment 10, 25 mg/kg) it was 10; in series [2] (day of treatment 11, 25 mg/kg), 10; in series [2] (day of treatment 12, 25 mg/kg), 10. Besides, the Survival of animals in series [2] (day of treatment 13, 25 mg/kg) is recorded as 10; in series [2] (day of treatment 14, 25 mg/kg), 10; in series [2] (day of treatment 15, 25 mg/kg) it was 10; in series [2] (day of treatment 16, 25 mg/kg), 10; in series [2] (day of treatment 17, 25 mg/kg), 10; in series [2] (day of treatment 18, 25 mg/kg), 10. In addition, the Survival of animals in series [2] (day of treatment 19, 25 mg/kg) was found to be 10; in series [2] (day of treatment 20, 25 mg/kg) it was 10; in series [2] (day of treatment 21, 25 mg/kg) it was 10; in series [2] (day of treatment 22, 25 mg/kg), 10; in series [2] (day of treatment 23, 25 mg/kg), 10; in series [2] (day of treatment 24, 25 mg/kg), 10. Moreover, the Survival of animals in series [2] (day of treatment 25, 25 mg/kg) is on record as 10; in series [2] (day of treatment 26, 25 mg/kg), 10; in series [2] (day of treatment 27, 25 mg/kg) it was 100%.

In the case of `CC1COC2(CCN(c3nc(=O)c4cc(C(F)(F)F)cc([N+](=O)[O-])c4s3)CC2)O1` (stereo not drawn) [Compound 2, 2-(2-methyl-1,4-dioxa-8-azaspiro[4.5]dec-8-yl)-8-nitro-6-(trifluoro-methyl)-1,3-benzothiazin-4-one], the Survival of animals in series [2] (day of treatment 1, 12 mg/kg) amounted to 10; in series [2] (day of treatment 1, 25 mg/kg), 10; in series [2] (day of treatment 2, 12 mg/kg), 10; in series [2] (day of treatment 2, 25 mg/kg) it was 10; in series [2] (day of treatment 3, 12 mg/kg) it was 10; in series [2] (day of treatment 3, 25 mg/kg), 10. Further, the Survival of animals in series [2] (day of treatment 4, 12 mg/kg) was determined as 10; in series [2] (day of treatment 4, 25 mg/kg), 10; in series [2] (day of treatment 5, 12 mg/kg), 10; in series [2] (day of treatment 5, 25 mg/kg), 10; in series [2] (day of treatment 6, 12 mg/kg) it was 10; in series [2] (day of treatment 6, 25 mg/kg), 10. Further, the Survival of animals is 10 in series [2] (day of treatment 7, 12 mg/kg); 10 in series [2] (day of treatment 7, 25 mg/kg); 10 in series [2] (day of treatment 8, 12 mg/kg); 10 in series [2] (day of treatment 8, 25 mg/kg); 10 in series [2] (day of treatment 9, 12 mg/kg); 10 in series [2] (day of treatment 9, 25 mg/kg). For the same molecule, the Survival of animals worked out at 10 in series [2] (day of treatment 10, 12 mg/kg); 10 in series [2] (day of treatment 10, 25 mg/kg); 10 in series [2] (day of treatment 11, 12 mg/kg); 10 in series [2] (day of treatment 11, 25 mg/kg); 10 in series [2] (day of treatment 12, 12 mg/kg); 10 in series [2] (day of treatment 12, 25 mg/kg). Further, the Survival of animals in series [2] (day of treatment 13, 12 mg/kg) was found to be 10; in series [2] (day of treatment 13, 25 mg/kg), 10; in series [2] (day of treatment 14, 12 mg/kg), 10; in series [2] (day of treatment 14, 25 mg/kg), 10; in series [2] (day of treatment 15, 12 mg/kg) it was 10; in series [2] (day of treatment 15, 25 mg/kg), 10. In addition, the Survival of animals is reported as 10 in series [2] (day of treatment 16, 12 mg/kg); 10 in series [2] (day of treatment 16, 25 mg/kg); 10 in series [2] (day of treatment 17, 12 mg/kg); 10 in series [2] (day of treatment 17, 25 mg/kg); 10 in series [2] (day of treatment 18, 12 mg/kg); 10 in series [2] (day of treatment 18, 25 mg/kg). Further, the Survival of animals in series [2] (day of treatment 19, 12 mg/kg) is recorded as 10; in series [2] (day of treatment 19, 25 mg/kg), 10; in series [2] (day of treatment 20, 12 mg/kg), 10; in series [2] (day of treatment 20, 25 mg/kg), 10; in series [2] (day of treatment 21, 12 mg/kg), 10; in series [2] (day of treatment 21, 25 mg/kg), 10. For the same molecule, the Survival of animals is recorded as 10 in series [2] (day of treatment 22, 12 mg/kg); 10 in series [2] (day of treatment 22, 25 mg/kg); 10 in series [2] (day of treatment 23, 12 mg/kg); 10 in series [2] (day of treatment 23, 25 mg/kg); 10 in series [2] (day of treatment 24, 12 mg/kg); 10 in series [2] (day of treatment 24, 25 mg/kg). Further, the Survival of animals is 10 in series [2] (day of treatment 25, 12 mg/kg); 10 in series [2] (day of treatment 25, 25 mg/kg); 10 in series [2] (day of treatment 26, 12 mg/kg); 10 in series [2] (day of treatment 26, 25 mg/kg); 100% in series [2] (day of treatment 27, 12 mg/kg); 100% in series [2] (day of treatment 27, 25 mg/kg). In series [3] (doses ranging up to 2000 mg/kg, 7 days of investigations), the “Toxicity after per os administration” value is listed as “non toxic”. Moreover, the LD50 in series [3] (per os) is on record as over 2000 mg/kg.

In the case of `CCOC1(OCC)CCN(c2nc(=O)c3cc([N+](=O)[O-])cc([N+](=O)[O-])c3s2)CC1` [Compound 6, 2-(4,4-diethoxypiperidin-1-yl)-6,8-dinitro-1,3-benzothiazin-4-one], the melting point fell in the range of 179 to 181 °C.

`N#Cc1cc([N+](=O)[O-])c2sc(N3CCC4(CC3)OCCCO4)nc(=O)c2c1` [Compound 11, 2-(1,5-dioxa-9-azaspiro[5.5]undec-9-yl)-8-nitro-4-oxo-1,3-benzothiazine-6-carbonitrile] gave a melting point of 230 to 232 °C. For the same molecule, the MIC in the series with M. fortuitum B (Mycolicibacterium fortuitum, M. fortuitum, read-out: MIC) is 0.025 µg/mL (≈ 0.0644 µM). Moreover, the MIC in the series on M. vaccae IMET 1010670 (Mycolicibacterium vaccae, IMET1010670, M. vaccae, read-out: MIC) was 0.00625 µg/mL (≈ 0.0161 µM). Moreover, the minimum inhibitory concentration (MIC) in series [1] (Mycolicibacterium smegmatis, SG987, M. smegmatis, read-out: MIC) was found to be 0.05 µg/mL (≈ 0.129 µM).

`CC1OC2(CCN(c3nc(=O)c4cc(C(F)(F)F)cc([N+](=O)[O-])c4s3)CC2)OC1C` (stereo not drawn) [Compound 5, 2-(2,3-dimethyl-1,4-dioxa-8-azaspiro[4.5]dec-8-yl)-8-nitro-6-(trifluoromethyl)-1,3-benzothiazin-4-one] displayed an MIC in series [4] of 0.39 µg/mL (≈ 0.876 µM).
